Reference: article PMC11081458 (Nature structural & molecular biology, 2024)

Assays:
Sas6T = Sas6T (Ruminococcus bromii, UniProt A0ABF7PL48); assay: Isothermal titration calorimetry with Sas6T; conditions: for n (binding stoichiometry) / binding by ITC (in words): ITC; for n (binding stoichiometry): fitted n
RbCBM26 = RbCBM26 (Ruminococcus bromii, UniProt A0ABF7PL48); assay: Isothermal titration calorimetry with RbCBM26; conditions: for binding by ITC (in words) / n (binding stoichiometry): ITC; for n (binding stoichiometry): fitted n
Sequence of RbCBM26 (A0ABF7PL48 31-129 limits assumed): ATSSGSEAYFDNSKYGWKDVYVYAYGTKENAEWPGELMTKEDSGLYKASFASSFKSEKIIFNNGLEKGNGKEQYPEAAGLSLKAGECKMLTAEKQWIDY

BIg–RbCBM74–BIg [1] = molecular target: T1, BIg–RbCBM74–BIg (Ruminococcus bromii, UniProt A0ABF7PL48); assay: Isothermal titration calorimetry with BIg–RbCBM74–BIg
T1 sequence (A0ABF7PL48 134-665 limits assumed): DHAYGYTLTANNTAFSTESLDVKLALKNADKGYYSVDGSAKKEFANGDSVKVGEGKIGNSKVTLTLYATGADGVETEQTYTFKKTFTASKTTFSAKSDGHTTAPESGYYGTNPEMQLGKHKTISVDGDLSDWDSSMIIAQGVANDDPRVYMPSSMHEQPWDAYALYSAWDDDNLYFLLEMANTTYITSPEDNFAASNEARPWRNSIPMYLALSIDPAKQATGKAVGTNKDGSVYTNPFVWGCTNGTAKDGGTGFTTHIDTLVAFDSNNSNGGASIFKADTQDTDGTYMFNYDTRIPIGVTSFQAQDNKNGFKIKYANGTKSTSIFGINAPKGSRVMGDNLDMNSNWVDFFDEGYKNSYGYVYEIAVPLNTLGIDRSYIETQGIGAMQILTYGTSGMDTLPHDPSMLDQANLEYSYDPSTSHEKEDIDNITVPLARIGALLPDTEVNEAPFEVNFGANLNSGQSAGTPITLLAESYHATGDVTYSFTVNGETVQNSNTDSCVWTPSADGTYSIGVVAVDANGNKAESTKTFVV

[2] = tested on: W373A site-directed mutant within the BIg–RbCBM74–BIg construct; assay: Isothermal titration calorimetry with W373A mutant
[3] = tested on: H289A site-directed mutant within the BIg–RbCBM74–BIg construct; assay: Isothermal titration calorimetry with H289A mutant; conditions: ITC
[4] = tested on: F326A site-directed mutant within the BIg–RbCBM74–BIg construct; assay: Isothermal titration calorimetry with F326A mutant; conditions: ITC
BIg–RbCBM74–BIg [5] = molecular target: T1, BIg–RbCBM74–BIg; assay: Native mass spectrometry titration, BIg–RbCBM74–BIg; conditions: native MS, 5 μM protein, 200 mM ammonium acetate
[6] = molecular target: previously studied CBM26 modules; conditions: read-out: dissociation constant (Kd) range; cited from earlier work

Sequence of Sas6T (A0ABF7PL48 31-665 limits assumed): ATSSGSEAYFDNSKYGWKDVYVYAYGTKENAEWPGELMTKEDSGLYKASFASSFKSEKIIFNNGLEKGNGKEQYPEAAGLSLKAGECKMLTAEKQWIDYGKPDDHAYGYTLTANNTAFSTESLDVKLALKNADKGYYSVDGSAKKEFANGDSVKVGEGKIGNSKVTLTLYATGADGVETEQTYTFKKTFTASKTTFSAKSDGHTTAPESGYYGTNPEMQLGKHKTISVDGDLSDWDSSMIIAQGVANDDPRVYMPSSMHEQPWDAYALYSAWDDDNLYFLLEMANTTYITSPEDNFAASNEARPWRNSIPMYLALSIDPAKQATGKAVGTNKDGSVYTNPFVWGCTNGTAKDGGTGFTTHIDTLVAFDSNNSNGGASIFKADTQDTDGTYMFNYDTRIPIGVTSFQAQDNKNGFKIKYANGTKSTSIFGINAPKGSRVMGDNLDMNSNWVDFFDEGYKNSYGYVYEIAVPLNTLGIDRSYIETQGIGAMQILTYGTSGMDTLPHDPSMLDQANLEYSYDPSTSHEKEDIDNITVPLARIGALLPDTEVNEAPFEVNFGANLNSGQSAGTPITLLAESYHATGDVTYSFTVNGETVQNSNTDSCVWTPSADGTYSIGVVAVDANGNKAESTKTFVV

Q: Which “n (binding stoichiometry)” value (Sas6T) does the source give for `OC[C@H]1O[C@@H]2O[C@H]3[C@H](O)[C@@H](O)[C@@H](O[C@H]4[C@H](O)[C@@H](O)[C@@H](O[C@H]5[C@H](O)[C@@H](O)[C@@H](O[C@H]6[C@H](O)[C@@H](O)[C@@H](O[C@H]7[C@H](O)[C@@H](O)[C@@H](O[C@H]1[C@H](O)[C@H]2O)O[C@@H]7CO)O[C@@H]6CO)O[C@@H]5CO)O[C@@H]4CO)O[C@@H]3CO` [ACX, α-cyclodextrin] here?
A: 1.0 ± 0.4

Q: And the “binding by ITC (in words)” value (RbCBM26)?
A: binds

Q: What about the “n (binding stoichiometry)” value (RbCBM26) of the same molecule?
A: 0.8 ± 0.13

Q: What about the “binding by ITC (in words)” value (BIg–RbCBM74–BIg [1]) of the same molecule?
A: no detectable affinity

Q: What does the source list for `OC[C@H]1O[C@H](O[C@H]2[C@H](O)[C@@H](O)[C@@H](O[C@H]3[C@H](O)[C@@H](O)[C@@H](O[C@H]4[C@H](O)[C@@H](O)[C@@H](O[C@H]5[C@H](O)[C@@H](O)[C@@H](O[C@H]6[C@H](O)[C@@H](O)[C@@H](O[C@H]7[C@H](O)[C@@H](O)[C@@H](O[C@H]8[C@H](O)[C@@H](O)C(O)O[C@@H]8CO)O[C@@H]7CO)O[C@@H]6CO)O[C@@H]5CO)O[C@@H]4CO)O[C@@H]3CO)O[C@@H]2CO)[C@H](O)[C@@H](O)[C@@H]1O` (stereo partly shown) [G8, maltooctaose]?
A: Kd (Sas6T): 496 ± 260 µM; binding by ITC (in words) (Sas6T): in the hundreds of μM; Kd (RbCBM26): 285 ± 84 µM

Q: Which “n (binding stoichiometry)” value (Sas6T) does the source give for `OC[C@H]1O[C@H](O[C@H]2[C@H](O)[C@@H](O)[C@@H](O[C@H]3[C@H](O)[C@@H](O)[C@@H](O[C@H]4[C@H](O)[C@@H](O)[C@@H](O[C@H]5[C@H](O)[C@@H](O)[C@@H](O[C@H]6[C@H](O)[C@@H](O)[C@@H](O[C@H]7[C@H](O)[C@@H](O)[C@@H](O[C@H]8[C@H](O)[C@@H](O)[C@@H](O[C@H]9[C@H](O)[C@@H](O)[C@@H](O[C@H]%10[C@H](O)[C@@H](O)C(O)O[C@@H]%10CO)O[C@@H]9CO)O[C@@H]8CO)O[C@@H]7CO)O[C@@H]6CO)O[C@@H]5CO)O[C@@H]4CO)O[C@@H]3CO)O[C@@H]2CO)[C@H](O)[C@@H](O)[C@@H]1O` (stereo partly shown) [G10, maltodecaose] here?
A: 0.8 ± 0.07

Q: What about the “n (binding stoichiometry)” value (RbCBM26) of the same molecule?
A: 0.7 ± 0.21

Q: And the “binding by ITC (in words)” value [2]?
A: lost binding

Q: What about the “decrease in affinity relative to BIg–RbCBM74–BIg” value [3] of the same molecule?
A: 10–20 fold

Q: And the “decrease in affinity relative to BIg–RbCBM74–BIg” value [4]?
A: 10–20 fold

Q: What about the Kd (BIg–RbCBM74–BIg [5]) of the same molecule?
A: 2.16 ± 0.53 µM

Q: And the “n (binding stoichiometry)” value (BIg–RbCBM74–BIg [1]; ITC, fitted n)?
A: 0.9 ± 0.20

Q: For `OC[C@H]1O[C@H](O[C@H]2[C@H](O)[C@@H](O)[C@@H](O[C@H]3[C@H](O)[C@@H](O)[C@@H](O[C@H]4[C@H](O)[C@@H](O)[C@@H](O[C@H]5[C@H](O)[C@@H](O)[C@@H](O[C@H]6[C@H](O)[C@@H](O)[C@@H](O[C@H]7[C@H](O)[C@@H](O)[C@@H](O[C@H]8[C@H](O)[C@@H](O)[C@@H](O[C@H]9[C@H](O)[C@@H](O)[C@@H](O[C@H]%10[C@H](O)[C@@H](O)[C@@H](O[C@H]%11[C@H](O)[C@@H](O)[C@@H](O[C@H]%12[C@H](O)[C@@H](O)[C@@H](O[C@H]%13[C@H](O)[C@@H](O)[C@@H](O[C@H]%14[C@H](O)[C@@H](O)C(O)O[C@@H]%14CO)O[C@@H]%13CO)O[C@@H]%12CO)O[C@@H]%11CO)O[C@@H]%10CO)O[C@@H]9CO)O[C@@H]8CO)O[C@@H]7CO)O[C@@H]6CO)O[C@@H]5CO)O[C@@H]4CO)O[C@@H]3CO)O[C@@H]2CO)[C@H](O)[C@@H](O)[C@@H]1O` (stereo partly shown) [G14, maltotetradecaose], which Kd (BIg–RbCBM74–BIg [5]) is on record?
A: 1.29 ± 0.1 µM

Q: What does the source list for `OC[C@H]1O[C@H](OC[C@H]2O[C@H](O[C@H]3[C@H](O)[C@@H](O)[C@@H](O[C@H]4[C@H](O)[C@@H](O)[C@@H](OC[C@H]5O[C@H](O[C@H]6[C@H](O)[C@@H](O)[C@@H](O[C@H]7[C@H](O)[C@@H](O)C(O)O[C@@H]7CO)O[C@@H]6CO)[C@H](O)[C@@H](O)[C@@H]5O)O[C@@H]4CO)O[C@@H]3CO)[C@H](O)[C@@H](O)[C@@H]2O)[C@H](O)[C@@H](O)[C@@H]1O` (stereo partly drawn) [glucosyl-α1,6-maltotriosyl-α 1,6-maltotriose]?
A: binding by ITC (in words) (Sas6T): None of the constructs bound; binding by ITC (in words) (RbCBM26): None of the constructs bound; binding by ITC (in words) (BIg–RbCBM74–BIg [1]): None of the constructs bound

Q: Which Kd [6] does the source give for `OC[C@H]1O[C@@H]2O[C@H]3[C@H](O)[C@@H](O)[C@@H](O[C@H]4[C@H](O)[C@@H](O)[C@@H](O[C@H]5[C@H](O)[C@@H](O)[C@@H](O[C@H]6[C@H](O)[C@@H](O)[C@@H](O[C@H]7[C@H](O)[C@@H](O)[C@@H](O[C@H]8[C@H](O)[C@@H](O)[C@@H](O[C@H]1[C@H](O)[C@H]2O)O[C@@H]8CO)O[C@@H]7CO)O[C@@H]6CO)O[C@@H]5CO)O[C@@H]4CO)O[C@@H]3CO` [β-cyclodextrin] here?
A: 350 to 600 µM

Q: Which “binding by ITC (in words)” value (Sas6T) does the source give for maltoheptaose [G7] here?
A: in the hundreds of μM

Q: What about the “binding by ITC (in words)” value (RbCBM26) of the same molecule?
A: binds

Q: And the “binding by ITC (in words)” value (BIg–RbCBM74–BIg [1])?
A: no detectable affinity
